Test [1] deals with Syk (356-635 amino acids) catalytic domain (Homo sapiens (Human), UniProt P43405). The test is described as follows: Inhibition of enzymatic Syk kinase activity (radiometric). The class given is biochemical. The following applies: read-out: IC50 Syk. An outline of the steps: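 Radiometric filter-binding format: 32P transfer from γ-32P-ATP onto pG4T, scintillation-counted after acid washes of P81 paper. Syk kinase domain (356-635), 0.035–7.5 ng per reaction, was exposed to compound for 30 minutes at room temperature before a 10-minute, 30° C. reaction with ATP (100 μM stock). Inhibition derived from counts with versus without compound.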

A further test concerns the target JAK2 (Homo sapiens (Human), UniProt O60674). Description: Inhibition of enzymatic JAK2 kinase activity (TR-FRET). The test is classed as biochemical. The conditions noted are these: read-out: IC50 JAK. The essentials:
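TR-FRET read-out (Eu antibody donor, Ulight poly Glu-Tyr acceptor, 665/615 nm ratio) after a 60 min RT kinase reaction with ATP, begun following 30 min compound–enzyme preincubation. Stopped by EDTA; inhibition expressed as 100 minus % activity of positive control.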
(Time-resolved FRET reads energy transfer from a long-lived donor to a nearby acceptor.)

Sequence of JAK2 (O60674 808-1132): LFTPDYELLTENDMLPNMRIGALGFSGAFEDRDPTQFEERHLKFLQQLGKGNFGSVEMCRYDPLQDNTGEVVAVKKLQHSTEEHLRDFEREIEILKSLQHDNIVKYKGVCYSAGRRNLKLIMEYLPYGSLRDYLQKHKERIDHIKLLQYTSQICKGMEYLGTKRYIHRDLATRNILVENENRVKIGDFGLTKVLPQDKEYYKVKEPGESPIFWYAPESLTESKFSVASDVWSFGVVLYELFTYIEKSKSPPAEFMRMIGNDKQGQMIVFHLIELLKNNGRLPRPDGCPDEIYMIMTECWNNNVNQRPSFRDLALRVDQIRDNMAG

For orientation: IC50 means the concentration that gives 50% inhibition. For the compound `Cl.O=c1[nH]ncc2nc(-c3ccccc3)nc(Nc3ccc(CN4CCNCC4)cc3)c12` [Example 7, 2-phenyl-4-(4-(piperazin-1-ylmethyl)phenylamino)pyrimido[4,5-d]pyridazin-5(6H)-one hydrochloride], the IC50 (in test [1]; on JAK2) was less than 50 nM throughout.
As for `O=C(O)C1CCN(c2ccc(Nc3nc(-c4ccccc4)nc4cn[nH]c(=O)c34)cc2)CC1` [Example 13, 1-(4-(5-oxo-2-phenyl-5,6-dihydropyrimido[4,5-d]pyridazin-4-ylamino)phenyl)piperidine-4-carboxylic acid], the IC50 in test [1] was less than 50 nM; at JAK2, less than 10 nM.
Consider `O=C(O)C1CC12CCN(c1ccc(Nc3nc(-c4ccccc4)nc4cn[nH]c(=O)c34)cc1)CC2` (centres unmarked) [Example 19, 6-(4-(5-oxo-2-phenyl-5,6-dihydropyrimido[4,5-d]pyridazin-4-ylamino)phenyl)-6-azaspiro[2.5]octane-1-carboxylic acid], for which the IC50 in test [1] is less than 50 nM; on JAK2 it was less than 10 nM.
For `O=C(O)C1CC12CCN(c1ccc(Nc3nc(N4CCCCCC4)nc4cn[nH]c(=O)c34)cc1)CC2` (centres unmarked) [Example 62, 6-(4-((2-(azepan-1-yl)-5-oxo-5,6-dihydropyrimido[4,5-d]pyridazin-4-yl)amino)phenyl)-6-azaspiro[2.5]octane-1-carboxylic acid] the same measures were less than 10 nM and less than 10 nM.
For `O=C(O)CC1CCN(c2ccc(Nc3nc(N4CCCCCC4)nc4cn[nH]c(=O)c34)cn2)CC1` [Example 108, 2-(1-(5-((2-(azepan-1-yl)-5-oxo-5,6-dihydropyrimido[4,5-d]pyridazin-4-yl)amino)pyridin-2-yl)piperidin-4-yl) acetic acid], in that order: less than 10 nM and less than 10 nM.
For the compound `N#CCC1CCN(c2nc(Nc3ccc(N4CCC(O)CC4)cc3)c3c(=O)[nH]ncc3n2)CC1` [Example 189, 2-(1-(4-((4-(4-hydroxypiperidin-1-yl)phenyl)amino)-5-oxo-5,6-dihydropyrimido[4,5-d]pyridazin-2-yl)piperidin-4-yl)acetonitrile], the IC50 was less than 10 nM in test [1] and less than 50 nM on JAK2.
For `N#CCC1CCN(c2nc(Nc3ccc(N4CCN(CCO)CC4)cc3)c3c(=O)[nH]ncc3n2)CC1` [Example 191, 2-(1-(4-((4-(4-(2-hydroxyethyl)piperazin-1-yl)phenyl)amino)-5-oxo-5,6-dihydropyrimido[4,5-d]pyridazin-2-yl)piperidin-4-yl)acetonitrile], the IC50 (in test [1]; at JAK2) was less than 10 nM throughout.

These data come from patent publication US10183944B2 (Asana Biosciences, LLC, priority 2011, dated 2019).
